From ChEMBL document CHEMBL4184141, “Investigating the Antibacterial Activity of Biphenylthiazoles against Methicillin- and Vancomycin-Resistant Staphylococcus aureus (MRSA and VRSA)” (J Med Chem, 2017)
In brackets after ≈: the same amount, converted by molar mass. Activity calls are given as the source filed them. No cut-off for these calls is given here.

Columns and labels:
Staphylococcus aureus [1] = experiment: Antibacterial activity against methicillin-resistant Staphylococcus aureus 2658 RCMB up to 20 hrs by broth microdilution assay; assay type: functional
[2] = Aqueous solubility of the compound in PBS after 2 hrs by turbidimetric method; assay type: physicochemical
Staphylococcus aureus [3] = experiment: Antibacterial activity against vancomycin-resistant Staphylococcus aureus VRS11a up to 20 hrs by broth microdilution assay; assay type: functional
Staphylococcus aureus [4] = experiment: Bactericidal activity against vancomycin-resistant Staphylococcus aureus VRS10 up to 18 hrs by broth microdilution assay; assay type: functional; details: VRS10, 18 h, read-out: MBC99.9
Staphylococcus aureus [5] = experiment: Bactericidal activity against vancomycin-resistant Staphylococcus aureus VRS11a up to 18 hrs by broth microdilution assay; assay type: functional; details: read-out: MBC99.9
Staphylococcus aureus [6] = experiment: Bactericidal activity against vancomycin-resistant Staphylococcus aureus VRS12 up to 18 hrs by broth microdilution assay; assay type: functional; details: VRS12, 18 h, read-out: MBC99.9
Staphylococcus aureus [7] = experiment: Bactericidal activity against methicillin-resistant Staphylococcus aureus USA400 NRS123 up to 18 hrs by broth microdilution assay; assay type: functional; details: USA400 NRS123, 18 h, read-out: MBC99.9
Staphylococcus aureus [8] = experiment: Antibacterial activity against vancomycin-resistant Staphylococcus aureus VRS10 up to 20 hrs by broth microdilution assay; assay type: functional; details: VRS10, 20 h
Staphylococcus aureus [9] = experiment: Bactericidal activity against methicillin-resistant Staphylococcus aureus USA300 assessed as time required to reduce bacterial load to 0 at 4 times MIC by time-kill assay; assay type: functional
Staphylococcus aureus [10] = experiment: Antibacterial activity against vancomycin-resistant Staphylococcus aureus VRS12 up to 20 hrs by broth microdilution assay; assay type: functional; details: VRS12, 20 h
Staphylococcus aureus [11] = experiment: Bactericidal activity against Staphylococcus aureus RN4220 up to 18 hrs by broth microdilution assay; assay type: functional; details: RN4220, 18 h, read-out: MBC99.9
Enterococcus faecium = experiment: Antibacterial activity against vancomycin-resistant Enterococcus faecium ATCC 700221 up to 20 hrs by broth microdilution assay; assay type: functional; details: ATCC 700221, 20 h
Staphylococcus aureus [12] = experiment: Bactericidal activity against methicillin-resistant Staphylococcus aureus NRS119 up to 18 hrs by broth microdilution assay; assay type: functional; details: NRS119, 18 h, read-out: MBC99.9
Staphylococcus aureus [13] = experiment: Potentiation of vancomycin-induced antibacterial activity against vancomycin-resistant Staphylococcus aureus VRS10 assessed as fold reduction in vancomycin MIC at 0.5 times MIC after 20 to 22 hrs; assay type: functional
[14] = Efflux ratio of permeability from basolateral to apical side over apical to basolateral side of human Caco2 cells by LC-MS/MS analysis; assay type: ADME, cell-based; details: Caco-2
HRT-18 cell line [15] = experiment: Cytotoxicity against human HRT18 cells at 64 microg/ml after 6 hrs by MTS assay; assay type: cell-based; details: hrt-18, 6 h
Staphylococcus aureus [16] = experiment: Antibacterial activity against methicillin-resistant Staphylococcus aureus USA400 NRS123 up to 20 hrs by broth microdilution assay; assay type: functional; details: USA400 NRS123, 20 h
[17] = Half life in human liver microsomes in presence of NADPH by LC-MS/MS analysis; assay type: ADME, microsome
Staphylococcus aureus [18] = experiment: Potentiation of vancomycin-induced antibacterial activity against vancomycin-resistant Staphylococcus aureus VRS10 assessed as reduction in vancomycin MIC after 20 hrs by checkerboard assay; assay type: functional
HRT-18 cell line [19] = experiment: Cytotoxicity against human HRT18 cells up to 32 microg/ml after 6 hrs by MTS assay; assay type: cell-based; details: hrt-18, 6 h
Staphylococcus aureus [20] = experiment: Antibacterial activity against methicillin-resistant Staphylococcus aureus USA300 infected in Caenorhabditis elegans AU37 harboring (sek-1(km4);glp-4(bn2)I) mutant assessed as reduction in bacterial burden at 20 ug/ml after 18 hrs by microscopic analysis relative to control; assay type: functional; design: scale not given: the % may be the effect or the level left
[21] = Half life in human liver microsomes in absence of NADPH by LC-MS/MS analysis; assay type: ADME, microsome
[22] = Intrinsic clearance in human liver microsomes in presence of NADPH by LC-MS/MS analysis; assay type: ADME, microsome; details: read-out: CLH
Staphylococcus aureus [23] = experiment: Potency index, ratio of vancomycin MIC to compound MIC for antibacterial activity against vancomycin-resistant Staphylococcus aureus VRS10; assay type: functional
Staphylococcus aureus [24] = experiment: Antibacterial activity against Staphylococcus aureus RN4220 up to 20 hrs by broth microdilution assay; assay type: functional; details: RN4220, 20 h
Staphylococcus aureus [25] = experiment: Antibacterial activity against methicillin-resistant Staphylococcus aureus NRS119 up to 20 hrs by broth microdilution assay; assay type: functional; details: NRS119, 20 h
Staphylococcus aureus [26] = experiment: Potentiation of vancomycin-induced antibacterial activity against vancomycin-resistant Staphylococcus aureus VRS10 assessed as vancomycin MIC after 20 hrs by checkerboard assay; assay type: functional; details: VRS10, 20 h
Staphylococcus aureus [27] = experiment: Potency index, ratio of vancomycin MIC to compound MIC for antibacterial activity against vancomycin-resistant Staphylococcus aureus VRS11a; assay type: functional
Pseudomonas aeruginosa = experiment: Antibacterial activity against Pseudomonas aeruginosa ATCC 15442 up to 20 hrs by broth microdilution assay; assay type: functional; details: ATCC 15442, 20 h
[28] = Intrinsic clearance in human liver microsomes in absence of NADPH by LC-MS/MS analysis; assay type: ADME, microsome; details: read-out: CLH
Staphylococcus aureus [29] = experiment: Synergistic antibacterial activity against vancomycin-resistant Staphylococcus aureus VRS10 after 20 hrs in presence of vancomycin by checkerboard assay; assay type: functional; details: VRS10, 20 h
[30] = Apparent permeability of the compound across basolateral side to apical side in human Caco2 cells by LC-MS/MS analysis; assay type: ADME, cell-based; details: Caco-2
Staphylococcus aureus [31] = experiment: Potency index, ratio of vancomycin MIC to compound MIC for antibacterial activity against vancomycin-resistant Staphylococcus aureus VRS12; assay type: functional
Staphylococcus aureus [32] = experiment: Antibacterial activity against methicillin-resistant Staphylococcus aureus USA300 at 4 times MIC after 12 hrs by time-kill assay; assay type: functional, organism-based

Structure (SMILES): Cc1nc(-c2ccc(-c3ccccc3)cc2)sc1-c1ccnc(N2CCOCC2)n1
- MIC (Staphylococcus aureus [1]): 3.12 µg/mL (≈ 7.53 µM)

Structure (SMILES): Cc1nc(-c2ccc(-c3ccccc3)cc2)sc1-c1ccnc(N2CCC2)n1
- MIC (Staphylococcus aureus [1]): > 25 µg/mL

Structure (SMILES): CCCCc1ccc(-c2nc(C)c(-c3ccnc(N)n3)s2)cc1
- MIC (Staphylococcus aureus [1]): 3.6 µg/mL (≈ 11.1 µM)

Structure (SMILES): Cc1nc(-c2ccc(-c3ccccc3)cc2)sc1-c1ccnc(N2CCCC2)n1
- MIC (Staphylococcus aureus [1]): > 25 µg/mL

Structure (SMILES): Cc1nc(-c2ccc(-c3ccccc3)cc2)sc1-c1ccnc(NC(=N)N)n1
- solubility kinetic at 2 h [2]: 2.2 µM (≈ 0.85 µg/mL)
- MIC (Staphylococcus aureus [1]): 1.56 µg/mL (≈ 4.04 µM)

Structure (SMILES): Cc1nc(-c2ccc(-c3ccccc3)cc2)sc1-c1ccnc(NC(=N)c2cccnc2)n1
- MIC (Staphylococcus aureus [1]): > 25 µg/mL

Structure (SMILES): Cc1nc(-c2ccc(-c3ccccc3)cc2)sc1-c1ccnc(N)n1
- MIC (Staphylococcus aureus [1]): 6.25 µg/mL (≈ 18.1 µM)

Structure (SMILES): Cc1nc(-c2ccc(-c3ccccc3)cc2)sc1-c1ccnc(NC(=N)n2cccn2)n1
- MIC (Staphylococcus aureus [1]): > 25 µg/mL

Structure (SMILES): CN[C@H](CC(C)C)C(=O)N[C@H]1C(=O)N[C@@H](CC(N)=O)C(=O)N[C@H]2C(=O)N[C@H]3C(=O)N[C@H](C(=O)N[C@H](C(=O)O)c4cc(O)cc(O)c4-c4cc3ccc4O)[C@H](O)c3ccc(c(Cl)c3)Oc3cc2cc(c3O[C@@H]2O[C@H](CO)[C@@H](O)[C@H](O)[C@H]2O[C@H]2C[C@](C)(N)[C@H](O)[C@H](C)O2)Oc2ccc(cc2Cl)[C@H]1O [VANCOMYCIN]
- MIC (Staphylococcus aureus [3]): > 512 µg/mL
- MBC (Staphylococcus aureus [4]): 512 µg/mL (≈ 353 µM)
- MBC (Staphylococcus aureus [5]): > 512 µg/mL
- MBC (Staphylococcus aureus [6]): 256 µg/mL (≈ 177 µM)
- MBC (Staphylococcus aureus [7]): 1 µg/mL (≈ 0.69 µM)
- MIC (Staphylococcus aureus [8]): 128 to 512 µg/mL (≈ 88.3 to 353 µM)
- Time (Staphylococcus aureus [9]): 24 h
- MIC (Staphylococcus aureus [10]): 16 µg/mL (≈ 11 µM)
- MIC (Staphylococcus aureus [1]): 1.56 µg/mL (≈ 1.08 µM)
- MBC (Staphylococcus aureus [11]): 1 µg/mL (≈ 0.69 µM)
- MIC (Enterococcus faecium): > 64 µg/mL
- MBC (Staphylococcus aureus [12]): 1 µg/mL (≈ 0.69 µM)

Structure (SMILES): CCNc1nccc(-c2sc(-c3ccc(-c4ccccc4)cc3)nc2C)n1
- MIC (Staphylococcus aureus [1]): 6.25 µg/mL (≈ 16.8 µM)

Structure (SMILES): Cc1nc(-c2ccc(-c3ccccc3)cc2)sc1-c1ccnc(N2CCCCC2)n1
- MIC (Staphylococcus aureus [1]): > 25 µg/mL

Structure (SMILES): Cc1nc(-c2ccc(-c3ccccc3)cc2)sc1-c1ccnc(N2CC(O)C2)n1
- MIC (Staphylococcus aureus [1]): 3.12 µg/mL (≈ 7.79 µM)

Structure (SMILES): CCCCNc1nccc(-c2sc(-c3ccc(-c4ccccc4)cc3)nc2C)n1
- MIC (Staphylococcus aureus [1]): > 25 µg/mL

Structure (SMILES): Cc1nc(-c2ccc(-c3ccccc3)cc2)sc1-c1ccnc(-c2ccccn2)n1
- MIC (Staphylococcus aureus [1]): > 25 µg/mL

Structure (SMILES): Cc1nc(-c2ccc(-c3ccccc3)cc2)sc1-c1ccnc(NC(=N)N2CCCCC2)n1
- MIC (Staphylococcus aureus [1]): > 25 µg/mL

Structure (SMILES): Cc1nc(-c2ccc(-c3ccccc3)cc2)sc1-c1ccnc(NC(=N)N2CCN(C)CC2)n1
- Activity (Staphylococcus aureus [13]): inactive
- efflux ratio [14]: > 2
- Activity (HRT-18 cell line [15]): Toxic
- MIC (Staphylococcus aureus [16]): 1 µg/mL (≈ 2.13 µM)
- MIC (Staphylococcus aureus [3]): 4 µg/mL (≈ 8.52 µM)
- half-life [17]: 2.52 h
- fractional inhibitory concentration index (FICI) (Staphylococcus aureus [18]): 1.02
- MBC (Staphylococcus aureus [4]): 8 µg/mL (≈ 17 µM)
- MBC (Staphylococcus aureus [5]): 8 µg/mL (≈ 17 µM)
- Activity (HRT-18 cell line [19]): Non-Toxic
- Activity (Staphylococcus aureus [20]): 65%
- half-life [21]: > 4 h
- microsomal CLint [22]: 15.3 µL/min/mg
- Ratio (Staphylococcus aureus [23]): 100
- MIC (Staphylococcus aureus [24]): 2 µg/mL (≈ 4.26 µM)
- solubility kinetic at 2 h [2]: 2.3 µM (≈ 1.08 µg/mL)
- MBC (Staphylococcus aureus [6]): 8 µg/mL (≈ 17 µM)
- MIC (Staphylococcus aureus [25]): 2 µg/mL (≈ 4.26 µM)
- MBC (Staphylococcus aureus [7]): 2 µg/mL (≈ 4.26 µM)
- MIC (Staphylococcus aureus [8]): 4 to 8 µg/mL (≈ 8.52 to 17 µM)
- Time (Staphylococcus aureus [9]): 2 h
- MIC (Staphylococcus aureus [10]): 2 µg/mL (≈ 4.26 µM)
- MIC (Staphylococcus aureus [26]): 128 to 256 µg/mL
- Ratio (Staphylococcus aureus [27]): 100
- MIC (Pseudomonas aeruginosa): > 64 µg/mL
- microsomal CLint [28]: < 9.6 µL/min/mg
- MIC (Staphylococcus aureus [1]): 0.39 µg/mL (≈ 0.83 µM)
- MBC (Staphylococcus aureus [11]): 8 µg/mL (≈ 17 µM)
- MIC (Enterococcus faecium): 16 µg/mL (≈ 34.1 µM)
- MIC (Staphylococcus aureus [29]): 0.13 µg/mL
- Papp B→A [30]: 1.7 ×10⁻⁶ cm/s
- Ratio (Staphylococcus aureus [31]): 8
- MBC (Staphylococcus aureus [12]): 4 µg/mL (≈ 8.52 µM)

Structure (SMILES): Cc1nc(-c2ccc(-c3ccccc3)cc2)sc1-c1ccnc(NC(=N)N2CCCC2)n1
- MIC (Staphylococcus aureus [1]): 12.5 µg/mL (≈ 28.4 µM)

Structure (SMILES): Cc1nc(-c2ccc(-c3ccccc3)cc2)sc1-c1ccnc(NC(=N)N2CCOCC2)n1
- Activity (HRT-18 cell line [15]): Toxic
- MIC (Staphylococcus aureus [16]): 16 µg/mL (≈ 35 µM)
- MIC (Staphylococcus aureus [3]): 32 µg/mL (≈ 70.1 µM)
- MBC (Staphylococcus aureus [4]): 64 µg/mL (≈ 140 µM)
- MBC (Staphylococcus aureus [5]): 64 µg/mL (≈ 140 µM)
- Activity (HRT-18 cell line [19]): Non-Toxic
- MIC (Staphylococcus aureus [24]): 8 µg/mL (≈ 17.5 µM)
- MBC (Staphylococcus aureus [6]): 64 µg/mL (≈ 140 µM)
- MIC (Staphylococcus aureus [25]): 8 µg/mL (≈ 17.5 µM)
- MBC (Staphylococcus aureus [7]): 16 µg/mL (≈ 35 µM)
- MIC (Staphylococcus aureus [8]): 32 µg/mL (≈ 70.1 µM)
- MIC (Staphylococcus aureus [10]): 64 µg/mL (≈ 140 µM)
- MIC (Pseudomonas aeruginosa): > 64 µg/mL
- MIC (Staphylococcus aureus [1]): 0.78 µg/mL (≈ 1.71 µM)
- MBC (Staphylococcus aureus [11]): 32 µg/mL (≈ 70.1 µM)
- MIC (Enterococcus faecium): 8 µg/mL (≈ 17.5 µM)
- Activity (Staphylococcus aureus [32]): inactive
- MBC (Staphylococcus aureus [12]): 16 µg/mL (≈ 35 µM)

Structure (SMILES): CNc1nccc(-c2sc(-c3ccc(-c4ccccc4)cc3)nc2C)n1
- MIC (Staphylococcus aureus [1]): 12.5 µg/mL (≈ 34.9 µM)

Structure (SMILES): Cc1nc(-c2ccc(-c3ccccc3)cc2)sc1-c1ccnc(N=C(N(C)C)N(C)C)n1
- MIC (Staphylococcus aureus [1]): > 25 µg/mL
